Assay results from patent publication US20240254156A1, “NOVEL ISOFLAVONE COMPOUND” (NABOCUL COSMETICS CO., LTD., priority 2021, published 2024).

Columns and labels:
[1] = test system: IL-6 production in RAW264.7 cells; experiment: LPS-induced IL-6 production in RAW264.7 cells (ELISA); format: cell-based, mouse; details: 1, 5, 10, 50 and 100 μM, added 3 h before LPS 1 μg/mL, supernatant after 24 h, FIG. 11
Procedure: The Ceratonia siliqua C obtained in Example 2 was used to examine the effect of the Ceratonia siliqua C on the production of IL-6 that is an inflammatory cytokine.
In this test, an RAW264.7 cell, a mouse macrophage-derived cell line was used. RAW264.7 cells were cultured in a DMEM medium (containing 10% FBS, 100 U/mL penicillin and […] streptomycin) in the presence of 5% CO2 at 37° C. and saturated humidity.
Each well of a 96-well plate was seeded with 8×10^3 RAW264.7 cells, and the cells were cultured in a CO2 incubator for 24 hours. This was divided into a blank control group, a positive control group and a test group. A 100 μL portion of a DMEM medium was added to each well of the blank control group; a 100 μL portion of a solution of dexamethasone (DXM) dissolved in the DMEM medium was added to each well of the positive control group (a final concentration of dexamethasone: 20 μM); and a 100 μL portion of each of solutions obtained by appropriately diluting the Ceratonia siliqua C with the DMEM medium was added to each well of the test group to provide a different concentration from each other (final concentration: 1 μM, 5 μM, 10 μM, 50 μM and 100 μM). 3 hours later, LPS (1 μg/mL) was added to each well to induce inflammation. 24 hours later, the supernatant was collected and the IL-6 content in the supernatant was measured with an IL-6 quantitative ELISA kit. […]

[2] = test system: filaggrin 2 (FLG2) gene; experiment: filaggrin 2 gene mRNA expression in HaCaT cells (QPCR); format: cell-based, human
Procedure: (§1) The Ceratonia siliqua C obtained in Example 2 was used to examine the effect of the Ceratonia siliqua C on the expression of aquaporin 3 (AQP3) gene and filaggrin 2 (FLG2) gene in a HaCaT cell, a human epidermis-derived keratinocyte cell line.
(§2) First, the HaCaT cells were cultured in a DMEM medium (containing 10% FBS, 100 U/mL penicillin and […] streptomycin) in the presence of 5% CO2 at 37° C. and saturated humidity. Next, the HaCaT cells adjusted to a cell concentration of 5×10^5 cells/mL were seeded in each well of a 6-well cell culture plate and cultured in a CO2 incubator (5% CO2, 37° C.) for 24 hours. Thereafter, the Ceratonia siliqua C isolated in Example 2 was added to each well to provide a final concentration different from each other. Specifically, the final concentrations of Ceratonia siliqua C in the HaCaT cell culture medium were 1 μM, 5 μM, 10 μM, 50 μM and 100 μM, respectively. A well without the Ceratonia siliqua C added was used as a control (0 μM). After addition, they were subjected to culture for 24 hours.
(§3) After completion of the culture, the HaCaT cells were collected from each well, and total RNA was extracted with an RNA extraction reagent (RNAzol®, a product available from Molecular Research Center, Inc.). […]

[3] = test system: aquaporin 3 (AQP3) gene; experiment: aquaporin 3 gene mRNA expression in HaCaT cells (QPCR); format: cell-based, human
Procedure: as §1, §2, §3

[4] = 10 μM (highest expression promoting effect), 24 h, relative to control

Structure (SMILES): COc1ccc(-c2coc3c(OC)c(O)c(O[C@@H]4O[C@H](CO)[C@@H](O)[C@H](O)[C@H]4O)cc3c2=O)cc1 [Ceratonia siliqua C]
- production of IL-6 by LPS induction [1]: inhibit the production of IL-6 in a concentration-dependent manner
- increase of mRNA expression level of filaggrin 2 [2, 4]: 1.35 times
- mRNA expression level of filaggrin 2 compared to the control ([2]; 1-100 μM, 24 h culture, FIG. 13): greatly increased the mRNA expression level
- increase of mRNA expression level of aquaporin 3 [3, 4]: 2.5 times
- mRNA expression level of aquaporin 3 compared to the control ([3]; 1-100 μM, 24 h culture, FIG. 12): greatly increased the mRNA expression level
